Assay results from paper PMC8398255, “Synthesis of 3,5-Bis(trifluoromethyl)phenyl-Substituted Pyrazole Derivatives as Potent Growth Inhibitors of Drug-Resistant Bacteria” (Molecules, 2021).
≈ marks a conversion by molar mass, not a printed value. Where two headings read alike, the source gives them in different places.

Assays:
[1] = tested on: Bacillus subtilis ATCC 6623 (Bs); assay: MIC, microdilution (CLSI); assay type: cell-based; conditions: ATCC6623
Experimental: (§1) Compounds were dissolved in dimethyl sulfoxide (DMSO) to achieve a starting concentration of 32 µg/mL as described by us previously. Compounds were further diluted two-fold across the 96-well honeycomb plate columns in cation adjusted Mueller Hinton broth (CAMHB), and bacterial culture was added. Plates were incubated for 18–20 h at 35 ℃ before determining the minimum concentrations at which wells had no visible turbidity to the naked eye. The MIC values were determined from at least a duplicate result obtained from three independent experiments using fresh bacterial cultures on different days.

[2] = tested on: E. faecalis ATCC 29212 (Ef12); assay: MIC, microdilution (CLSI); assay type: cell-based; conditions: Enterococcus faecalis, ATCC29212
Experimental: as §1

[3] = tested on: E. faecalis ATCC 51299 (Ef99); assay: MIC, microdilution (CLSI); assay type: cell-based; conditions: Enterococcus faecalis, ATCC 51299 / VRE
Experimental: as §1

[4] = tested on: E. faecium ATCC 700221 (Ef21); assay: MIC, microdilution (CLSI); assay type: cell-based; conditions: Enterococcus faecium, ATCC 700221 / VRE
Experimental: as §1

[5] = tested on: S. aureus ATCC 25923 (Sa23); assay: MIC, microdilution (CLSI); assay type: cell-based; conditions: Staphylococcus aureus, ATCC25923
Experimental: as §1

[6] = tested on: S. aureus ATCC 33591 (Sa91); assay: MIC, microdilution (CLSI); assay type: cell-based; conditions: Staphylococcus aureus, ATCC33591
Experimental: as §1

[7] = tested on: S. aureus ATCC 33592 (Sa92); assay: MIC, microdilution (CLSI); assay type: cell-based; conditions: Staphylococcus aureus, ATCC33592
Experimental: as §1

[8] = tested on: S. aureus ATCC 700699 (Sa99); assay: MIC, microdilution (CLSI); assay type: cell-based; conditions: Staphylococcus aureus, ATCC700699
Experimental: as §1

[9] = tested on: S. aureus BAA-2312 (Sa12); assay: MIC, microdilution (CLSI); assay type: cell-based; conditions: Staphylococcus aureus, BAA2312
Experimental: as §1

[10] = tested on: S. epidermidis ATCC 700296 (Se); assay: MIC, microdilution (CLSI); assay type: cell-based; conditions: Staphylococcus epidermidis, ATCC700296
Experimental: as §1

[11] = tested on: S. aureus biofilms (Sa23); assay: Biofilm eradication (MBEC), Calgary Biofilm Device; assay type: cell-based, Staphylococcus aureus
Experimental: (§2) Minimum biofilm eradication concentration (MBEC) was determined using a Calgary device using the protocol reported elsewhere with some modifications. The Calgary device is a 96-well plate with a lid containing pegs to establish biofilms. Bacteria from an overnight plate culture were suspended to a 0.5 McFarland turbidity, then diluted 1:100 in a CAMHB containing 1% glucose which was inoculated in the 96 wells (150 μL in each well) and incubated at 35 °C for 24 h to establish biofilm on the pegs. The lid was then removed, washed with PBS in a fresh 96 well plate, then transferred to another 96-well plate containing 2-fold serial dilutions of the test compounds dissolved in PBS (150 μL total volume in each well). This plate was called the “challenge plate”. The challenge plate was incubated for an additional 24 h, and the lid was transferred to the next 96-well plate containing fresh CAMHB media with 1% glucose (180 μL) and further incubated for 24 h. […] All the compounds were tested in a minimum of three independent experiments.

[12] = tested on: E. faecalis biofilms (Efs12); assay: Biofilm eradication (MBEC), Calgary Biofilm Device; assay type: cell-based
Experimental: as §2

[13] = Cytotoxicity assay (resazurin); assay type: cell-based; conditions: human, HEK-293 cells, 24 h treatment, n = 3
Experimental: The human embryonic kidney cell line (HEK-293) was used to assess the cytotoxicity of the antibiotics as described by us previously. HEK-293 cells were cultured in Dulbecco’s modified eagle’s medium (DMEM) containing 10% Fetal Bovine Serum (FBS) and incubated at 37 °C in the presence of 5% carbon dioxide. HEK-293 cells were cultured in 96-well black plates with 6000 cells per well for the first 24 h followed by treatment with a range of concentrations of antibiotics dissolved in DMSO for the next 24 h. After the second period of incubation, resazurin (40 µL of 0.15 mg/mL) was added to each well and incubated for an additional 4 h. Reduction of resazurin was measured fluorometrically with excitation wavelength at 560 nm and emission at 590 nm using BioTek™ Cytation™5 plate reader. Percentage viability of HEK cells for each range of concentrations was calculated, taking the fluorescence value of the wells treated with DMSO as a reference, using Microsoft® Excel® for Office 365 MSO. IC50 values were computed using the calculated percentage viability values through data processing in Graphpad Prism 7 for Windows, Version 7.04.

[14] = tested on: S. aureus ATCC 700699 persisters; assay: Persister viability assay; assay type: cell-based, Staphylococcus aureus; conditions: 32× MIC, 4 h, S. aureus ATCC 700699 persisters
Experimental: The persister assay was performed following the methodology described previously. Briefly, for persister viability assays, S. aureus ATCC 700699 strain (MRSA) was grown to stationary phase in CAMHB medium by shaking at 200 rpm in a shaking incubator for 24 h at 35 °C. […] After incubation, 400 µL aliquot was washed, serially diluted in PBS, and plated in blood agar plate for viable colony count.

[15] = tested on: Gram-positive bacteria; assay: MIC across the tested strains; assay type: cell-based; conditions: against several bacterial strains
Experimental: as §1

[16] = tested on: S. aureus and E. faecalis biofilms; assay: Biofilm eradication, S. aureus and E. faecalis; assay type: cell-based
Experimental: as §2

[17] = tested on: MRSA (S. aureus ATCC 700699); assay: Time Kill Assay; assay type: cell-based, Staphylococcus aureus; conditions: 4× MIC, positive controls
[18] = Bs, Bacillus subtilis ATCC 6623, n = 3, read-out: MIC
[19] = Ef12, antibiotic susceptible E. faecalis ATCC 29212, n = 3, read-out: MIC
[20] = Ef99, vancomycin-resistant (VRE) E. faecalis ATCC 51299, n = 3, read-out: MIC
[21] = Ef21, vancomycin-resistant (VRE) E. faecium ATCC 700221, n = 3, read-out: MIC
[22] = Sa23, antibiotic susceptible S. aureus ATCC 25923, n = 3, read-out: MIC
[23] = Sa91, methicillin-resistant S. aureus ATCC 33591, n = 3, read-out: MIC
[24] = Sa92, methicillin-resistant S. aureus ATCC 33592, n = 3, read-out: MIC
[25] = Sa99, methicillin-resistant S. aureus ATCC 700699, n = 3, read-out: MIC
[26] = Sa12, methicillin-resistant S. aureus BAA-2312, n = 3, read-out: MIC
[27] = Se, S. epidermidis ATCC 700296, n = 3, read-out: MIC

Structure (SMILES) | MIC [1, 18] [µg/mL] | MIC [2, 19] [µg/mL] | MIC [3, 20] [µg/mL] | MIC [4, 21] [µg/mL] | MIC [5, 22] [µg/mL] | MIC [6, 23] [µg/mL] | MIC [7, 24] [µg/mL] | MIC [8, 25] [µg/mL] | MIC [9, 26] [µg/mL] | MIC [10, 27] [µg/mL] | MBEC [11] [µg/mL] | MBEC [12] [µg/mL] | IC50 at 24 h [13] [µg/mL] | activity against persisters [14] | other results
O=C(O)c1ccc(-n2cc(CNc3ccc(Oc4ccccc4)cc3)c(-c3cc(C(F)(F)F)cc(C(F)(F)F)c3)n2)cc1 [Compound 5, 4-[3-[3,5-Bis(trifluoromethyl)phenyl]-4-[(4-phenoxyanilino)methyl]pyrazol-1-yl] benzoic acid] | 2 (≈ 3.35 µM) | 2 (≈ 3.35 µM) | 1 (≈ 1.67 µM) | 1 (≈ 1.67 µM) | 1 (≈ 1.67 µM) | 1 (≈ 1.67 µM) | 1 (≈ 1.67 µM) | 2 (≈ 3.35 µM) | 2 (≈ 3.35 µM) | 4 (≈ 6.69 µM) | >32 | >32 | 9.15 (≈ 15.3 µM) | partial activity | MIC [15]: 1 µg/mL (≈ 1.67 µM); biofilm eradication property [16]: did not show any appreciable biofilm eradication property
CN[C@H](CC(C)C)C(=O)N[C@H]1C(=O)N[C@@H](CC(N)=O)C(=O)N[C@H]2C(=O)N[C@H]3C(=O)N[C@H](C(=O)N[C@H](C(=O)O)c4cc(O)cc(O)c4-c4cc3ccc4O)[C@H](O)c3ccc(c(Cl)c3)Oc3cc2cc(c3O[C@@H]2O[C@H](CO)[C@@H](O)[C@H](O)[C@H]2O[C@H]2C[C@](C)(N)[C@H](O)[C@H](C)O2)Oc2ccc(cc2Cl)[C@H]1O [V, Vancomycin, reference compound] |  |  |  |  |  |  |  |  |  |  | >32 | >32 |  | failed to demonstrate persister kill activity | MIC ([1]; Bacillus subtilis): 0.25 µg/mL (≈ 0.173 µM); MIC [2]: 2 µg/mL (≈ 1.38 µM); MIC [3]: > 32 µg/mL; MIC [4]: > 32 µg/mL; MIC [5]: 1 µg/mL (≈ 0.69 µM); MIC [6]: 2 µg/mL (≈ 1.38 µM); MIC [7]: 2 µg/mL (≈ 1.38 µM); MIC [8]: 4 µg/mL (≈ 2.76 µM); MIC [9]: 0.5 µg/mL (≈ 0.345 µM); MIC [10]: 2 µg/mL (≈ 1.38 µM); time to eliminate >99.9% CFUs [17]: 8 h
O=C(O)c1ccc(-n2cc(CNc3cc(Cl)c(F)c(Cl)c3)c(-c3cc(C(F)(F)F)cc(C(F)(F)F)c3)n2)cc1 [Compound 28, 4-[3-[3,5-Bis(trifluoromethyl)phenyl]-4-[(3,5-dichloro-4-fluoro-anilino)methyl]pyraz-ol-1-yl] benzoic acid] | 1 (≈ 1.69 µM) | 2 (≈ 3.38 µM) | 2 (≈ 3.38 µM) | 1 (≈ 1.69 µM) | 1 (≈ 1.69 µM) | 1 (≈ 1.69 µM) | 1 (≈ 1.69 µM) | 1 (≈ 1.69 µM) | 1 (≈ 1.69 µM) | 2 (≈ 3.38 µM) |  | 2 | 7 to 8 (≈ 11.8 to 13.5 µM) | very effective | MBEC values [16]: ≥ 1 µg/mL
